This note sets out measurements from PubChem BioAssay (NCI).

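Growth conditions: 96-well plates. Treatment: test compound, 48 hours, 5 concentrations. Analysis: linear interpolation between bracketing concentrations; unreached endpoints set to highest concentration. TGI marks complete inhibition of growth.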 Bounds are passed on as bounds.

Test in all cases: inhibition of tumour cell growth, NCI panel, 48 h
Experiment [1] deals with A549 NSCLC.
The test system of experiment [2] is HOP-62 NSCLC.
The test system of experiment [3] is LOX IMVI melanoma.
Experiment [4] concerns NCI/ADR-RES ovarian.
Experiment [5] concerns HL-60(TB) leukemia.
In experiment [6] the test system is OVCAR-8 ovarian.
The test system of experiment [7] is NCI-H522 lung.
For experiment [8], the system named is NCI-H460 lung.
In experiment [9] the test system is UACC-62 melanoma.
The subject of experiment [10] is IGROV1 ovarian.
Experiment [11] has as its system OVCAR-5 ovarian.
Experiment [12] concerns NCI-H226 lung.
Experiment [13] deals with SK-MEL-28 melanoma.
Experiment [14] relates to EKVX NSCLC.
Experiment [15] deals with MDA-MB-435.
Experiment [16] deals with CCRF-CEM leukemia.
The test system of experiment [17] is U251 CNS.
The subject of experiment [18] is SF-268 CNS.
Experiment [19] relates to SK-OV-3 ovarian.

With `O=C1c2ccccc2C(=O)c2c1nc1ccccc1c2-c1cncc(-c2c3c(nc4ccccc24)C(=O)c2ccccc2C3=O)c1`, the TGI in experiment [1] is 22.3 µM; in [2] it was > 100 µM; in experiment [3], 13.8 µM; in [4] it was 51 µM; in [5], 18.3 µM; in [6] it was 27.1 µM. Moreover, the TGI in experiment [7] is 19.6 µM; in experiment [8], 10 µM; in experiment [9], 19.9 µM; in experiment [10], 19.7 µM; in experiment [11], > 100 µM; in experiment [12] it was 43.6 µM. Besides, the TGI in experiment [13] was 28.7 µM; in [14], > 100 µM; in [15], 3.96 µM; in [16] it was 43.9 µM; in experiment [17] it was > 45.8 µM; in [18] it was > 62.8 µM. Further, the TGI in [19] was > 100 µM.

Turning to `COc1cccc2nc3c(C(=O)NCCN(C)C)cccc3cc12`, the TGI was 4.49 µM in [1]; 7.1 µM in experiment [2]; 2.49 µM in [3]; 9.17 µM in experiment [4]; 4.48 µM in experiment [5]; 3.07 µM in [6]. Further, the TGI in experiment [7] turned out to be 3.42 µM; in [8], 4.44 µM; in experiment [9], 7.77 µM; in [10], 11 µM; in [11] it was 6.5 µM; in experiment [12], 4.15 µM. Also, the TGI in experiment [13] turned out to be 9.85 µM; in experiment [14] it was 9.64 µM; in experiment [15], 9.41 µM; in experiment [16] it was 61.3 µM; in experiment [17] it was 5.46 µM; in experiment [18], 15.5 µM. In experiment [19], this molecule gave a TGI of 4.94 µM.

With `COc1ccc(C[C@H]2COC(=O)[C@@H]2Cc2cccc(Br)c2)cc1OC`, the TGI in experiment [1] was > 100 µM; in [2], > 100 µM; in experiment [3] it was 14.6 µM; in experiment [4] it was > 100 µM; in [5], 38.6 µM; in experiment [6], 69.6 µM. Moreover, the TGI in [7] is 47.5 µM; in experiment [8] it was 67.2 µM; in experiment [9] it was > 100 µM; in [10] it was > 100 µM; in [11], > 100 µM; in experiment [12], > 100 µM. The TGI in experiment [13] was 68.4 µM; in [14], 97.1 µM; in [15] it was 56.9 µM; in [16], 39.2 µM; in [17] it was 73.4 µM; in experiment [18], > 100 µM. In [19], this molecule returned a TGI of 66.4 µM.

In the case of `CC1OC(OC2C(OC(=O)[C@]34CCC(C)(C)C[C@H]3C3=CC[C@@H]5[C@@]6(C)CC[C@H](OC7OC(CO)C(O)C(O)C7OC7OC(CO)C(O)C(O)C7O)C(C)(C)[C@@H]6CC[C@@]5(C)[C@]3(C)CC4)OCC(O)C2O)C(O)C(OC2OCC(O)C(O)C2O)C1OC1OCC(O)C(OC2OCC(O)C(O)C2O)C1O` (stereo partly drawn), the TGI was 15 µM in [1]; 29.6 µM in experiment [2]; > 74.6 µM in experiment [3]; > 100 µM in [4]; 10.8 µM in experiment [5]; > 83.2 µM in experiment [6]. Also, the TGI in experiment [7] is 9.56 µM; in [8], > 100 µM; in experiment [9] it was 30.2 µM; in experiment [10], > 67.4 µM; in experiment [11] it was 23.5 µM; in experiment [12], 24.7 µM. For the same molecule, the TGI in [13] was 4.85 µM; in experiment [14], 17.1 µM; in experiment [15], 5.6 µM; in [16], > 100 µM; in [17] it was > 56.8 µM; in [18], 33.1 µM. Besides, the TGI in experiment [19] is > 69.5 µM.

Consider `N#Cc1c(-c2ccc(Cl)cc2)c(C#N)c(=O)n(NS(=O)(=O)c2ccccc2)c1O`, for which the TGI was > 100 µM in experiment [1]; > 100 µM in experiment [2]; 30.7 µM in experiment [3]; 93 µM in experiment [4]; 41.3 µM in [5]; > 100 µM in [6]. Also, the TGI is > 100 µM in experiment [7]; 55 µM in experiment [8]; 29.6 µM in [9]; > 100 µM in experiment [10]; > 100 µM in experiment [11]; > 100 µM in experiment [12]. In addition, the TGI in experiment [13] is > 100 µM; in experiment [14], > 100 µM; in experiment [15], > 100 µM; in experiment [16], 88.6 µM; in experiment [17], > 100 µM; in experiment [18], > 100 µM. Further, the TGI in experiment [19] worked out at 79 µM.

For the molecule `[N-]=[N+]=CC(=O)OC1Cc2ccccc2C1`, the TGI in experiment [1], in experiment [2], in [3], in experiment [4], in experiment [5] and in experiment [6] was > 100 µM throughout. The TGI in experiment [7], in [8], in experiment [9], in [10], in [11] and in experiment [12] was > 100 µM in each case. Besides, the TGI in [13] is > 100 µM; in experiment [14], > 100 µM; in experiment [15], > 100 µM; in [16] it was > 31.6 µM; in experiment [17], > 100 µM; in experiment [18], > 100 µM. For the same molecule, the TGI in experiment [19] was > 100 µM.

Regarding `CC1(C)OC2C(O)C(CO)OC2(C(F)F)O1` (stereo not drawn), the TGI in [1], in experiment [2], in [3], in experiment [4], in [5] and in experiment [6] was > 100 µM each time. For the same molecule, the TGI in experiment [7], in experiment [8], in [9], in [10], in experiment [11] and in experiment [12] was > 100 µM in each case. The TGI in experiment [13], in experiment [14], in [15], in experiment [16], in experiment [17] and in experiment [18] was > 100 µM in each case. Moreover, in [19], the TGI is > 100 µM.
